These results are taken from ChEMBL document CHEMBL4765487, “From a Designer Drug to the Discovery of Selective Cannabinoid Type 2 Receptor Agonists with Favorable Pharmacokinetic Profiles for the Treatment of Systemic Sclerosis” (J Med Chem, 2021).

The nature of data set [1]: in vitro. As to conditions: human, liver microsomes.
Description: Stability in human liver microsomes assessed as parent compound remaining at 1 uM incubated for 60 mins in presence of NADPH by LC-MS/MS analysis
Data set [2] in a line: in vitro. The note with it: human, liver.
Data set [3] concerns the target T1, Cannabinoid receptor 2 (Homo sapiens, UniProt P34972). In words: Agonist activity at human CB2 receptor expressing CHO cells co-expressing Galpha16 by calcium mobilization assay relative to CP55940. As to conditions: filed as agonist. The format is functional, cell-based. (A change in cytosolic calcium serves as a functional read-out for many receptors and channels.)

Data set [4] addresses T2, Cannabinoid receptor 1 (Homo sapiens, UniProt P21554). Nature of the data set: Agonist activity at human CB1 receptor expressing CHO cells co-expressing Galpha16 by calcium mobilization assay relative to CP55940. The data set is classed as functional, cell-based. As to conditions: filed as agonist.
Data set [5] is described as follows: in vitro. As to conditions: human, liver microsomes. This is another data set of the same source.
For data set [6], the target named is T1, Cannabinoid receptor 2. Nature of the data set: Antagonist activity at human CB2 receptor expressing CHO cells co-expressing Galpha16 assessed as inhibition of CP55940-induced calcium mobilization pre-incubated for 15 mins before CP55940 addition. The format is functional, cell-based.
Data set [7] can be described thus: in vitro. The note with it: human, liver microsomes. The source holds these as a separate data set. A general note: Liver microsomes are a subcellular fraction often used to study metabolism.
Description: Half life in human liver microsomes at 1 uM in presence of NADPH by LC-MS/MS analysis
Data set [8] has as its target T2, Cannabinoid receptor 1. Nature of the data set: Agonist activity at human CB1 receptor expressing CHO cells co-expressing Galpha16 by calcium mobilization assay. The format is functional, cell-based.
Data set [9] addresses T1, Cannabinoid receptor 2. Nature of the data set: Agonist activity at human CB2 receptor expressing CHO cells co-expressing Galpha16 by calcium mobilization assay. The format is functional, cell-based.
The target in data set [10] is T2, Cannabinoid receptor 1. Nature of the data set: Agonist activity at CB1 receptor (unknown origin) relative to control. The note with it: filed as agonist.
In data set [11] the target is T2, Cannabinoid receptor 1. In words: Agonist activity at CB1 receptor (unknown origin).
For data set [12], the target named is T1, Cannabinoid receptor 2. In words: Agonist activity at CB2 receptor (unknown origin) relative to control. The note with it: filed as agonist.
For data set [13], the target named is T2, Cannabinoid receptor 1. In words: Agonist activity at human CB1 receptor expressing CHO cells co-expressing Galpha16 at 10 uM by calcium mobilization assay. The data set is classed as functional, cell-based. The note with it: filed as agonist.
The target in data set [14] is T2, Cannabinoid receptor 1. In words: Induction of receptor desensitization at human CB1 receptor expressing CHO cells co-expressing Galpha16 at 10 uM followed by washing with HBSS buffer upon incubation for 10 mins and restimulated with CP55940 by calcium mobilization assay. The format is functional, cell-based. The note with it: filed as agonist.

Active and inactive are the calls of the source.

T1 sequence (P34972 whole entry): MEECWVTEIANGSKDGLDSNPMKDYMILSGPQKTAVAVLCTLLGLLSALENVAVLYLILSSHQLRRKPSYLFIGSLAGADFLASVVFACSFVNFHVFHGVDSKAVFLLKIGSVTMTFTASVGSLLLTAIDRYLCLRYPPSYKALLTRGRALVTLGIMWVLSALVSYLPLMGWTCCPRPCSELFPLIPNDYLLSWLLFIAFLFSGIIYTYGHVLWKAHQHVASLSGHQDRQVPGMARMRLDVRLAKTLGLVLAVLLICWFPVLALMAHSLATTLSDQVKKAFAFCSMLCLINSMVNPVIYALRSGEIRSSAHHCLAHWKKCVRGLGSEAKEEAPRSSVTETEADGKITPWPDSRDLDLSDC
T2 sequence (P21554 whole entry): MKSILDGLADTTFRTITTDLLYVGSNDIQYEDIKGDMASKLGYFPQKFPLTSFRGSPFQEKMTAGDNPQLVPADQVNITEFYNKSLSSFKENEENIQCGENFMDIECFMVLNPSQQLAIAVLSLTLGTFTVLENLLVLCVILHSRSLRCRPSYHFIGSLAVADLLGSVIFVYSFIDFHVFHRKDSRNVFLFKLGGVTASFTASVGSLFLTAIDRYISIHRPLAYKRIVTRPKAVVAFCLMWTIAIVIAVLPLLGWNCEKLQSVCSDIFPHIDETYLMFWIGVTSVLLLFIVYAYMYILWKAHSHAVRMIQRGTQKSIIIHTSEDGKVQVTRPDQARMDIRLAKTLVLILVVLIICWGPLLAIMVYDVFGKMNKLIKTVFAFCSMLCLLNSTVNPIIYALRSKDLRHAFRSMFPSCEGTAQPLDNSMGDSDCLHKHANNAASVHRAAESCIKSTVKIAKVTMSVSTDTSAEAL

What is called share remaining is the share of the starting amount still present when the sample was taken. A higher share remaining goes with greater stability. A word on the CLint scaled: it is a measure of how fast metabolising enzymes remove a compound, apart from limits set by blood flow. A low value points to slow turnover. By Emax is commonly meant the maximal effect, on the per cent scale that the assay sets. Broadly, the microsomal CLint is a measure of how fast metabolising enzymes remove a compound, apart from limits set by blood flow. The term IC50 denotes the concentration that inhibits the measured activity by half. Usually half-life stands for the time needed for the level to fall by half in the phase considered. As a reminder, the EC50 is the concentration at which the effect is half-maximal. As to `CCCCCn1nc(C(=O)NC(C)(C)CO)c(N)c1C(C)(C)C`, in the data set “in vitro [1]”, the fraction remaining at 1 h, 1 µM is 4.6%. In the data set “in vitro [2]”, the CLint scaled at 1 µM stood at 94 mL/min/kg. In addition, the Emax at Cannabinoid receptor 2 [3] amounted to 100%; on Cannabinoid receptor 1 [4], 80%. The molecule also gave an intrinsic clearance (microsomal CLint) at 1 µM in the data set “in vitro [5]” of 104 µL/min/mg. The IC50 result on Cannabinoid receptor 2 [6] (cho) is on record as “Not Active”. In “in vitro [7]”, this molecule displayed a half-life at 1 µM of 13.3 min. Further, the figures for the concentration for a half-maximal effect (EC50) at Cannabinoid receptor 1 [8] and at Cannabinoid receptor 2 [9] were 195 nM and 5.5 nM, respectively.
In the data set “in vitro [1]”, `CCCCCn1nc(C(=O)NC(C)(C)CO)cc1-c1ccc(F)cc1F` displayed an amount remaining at 1 h, 1 µM of 14.1%. For the same molecule, the CLint scaled at 1 µM in “in vitro [2]” is 58.2 mL/min/kg. This molecule also yielded a microsomal CLint at 1 µM in the data set “in vitro [5]” of 64.6 µL/min/mg. Further, the IC50 at Cannabinoid receptor 2 [6] (read-out: IC50) is 87.1 nM. Besides, the half-life at 1 µM in the data set “in vitro [7]” is 21.4 min. Further, the EC50 on Cannabinoid receptor 1 [8] and at Cannabinoid receptor 2 [9] was 100000 nM throughout.
For the molecule `CCCCCn1cc(C(=O)NC23CC4CC(CC(C4)C2)C3)c2ccccc21`, the maximal response (Emax) on Cannabinoid receptor 1 [10] was 98%; at Cannabinoid receptor 2 [12] it was 91%. The molecule further had an EC50 at Cannabinoid receptor 1 [11] of 34 nM.
For the molecule `CCCCCCC(C)(C)c1ccc([C@@H]2C[C@H](O)CC[C@H]2CCCO)c(O)c1` [CP-55940], the outcome on Cannabinoid receptor 1 [13] and at Cannabinoid receptor 1 [14] was Active. In addition, at Cannabinoid receptor 2 [6] (cho), the IC50 entry is recorded as “Not Active”.
